Where a SMILES comes first, the peptide text is derived from it. Bridges are numbered along the chain shown (N, C = ends). [ ]: non-standard residue; d: D form. The star is where a group is joined. ξ: configuration not given here. Bip = N[C@@H](Cc1ccc(-c2ccccc2)cc1)C(=O)O; Phe(3-OMe) = COc1cccc(C[C@H](N)C(=O)O)c1; Phe(3-Me) = Cc1cccc(C[C@H](N)C(=O)O)c1; ξW = NC(Cc1c[nH]c2ccccc12)C(=O)O; 4Pal = N[C@@H](Cc1ccncc1)C(=O)O; Cha = N[C@@H](CC1CCCCC1)C(=O)O; Cit = NC(=O)NCCC[C@H](N)C(=O)O; ξCit = NC(=O)NCCCC(N)C(=O)O; Carboxymethyl = O=C(O)C*; Orn = NCCC[C@H](N)C(=O)O; Pra = C#CC[C@H](N)C(=O)O; Dab = NCC[C@H](N)C(=O)O; Dap = NC[C@H](N)C(=O)O
The molecules below were run against T1, human PD-1 / PD-L1-Ig binding on Jurkat cell line over-expressing human PD-1 (Jurkat-PD-1) (Homo sapiens, UniProt Q15116) (assay: Jurkat-PD-1 Cell Binding High-Content Screening Assay (CBA)). Settings: Jurkat HPD1_PDL1 IC50, Jurkat-PD-1 cells, PE-labeled PD-L1-Ig 20 nM final.
T1 construct: expressed in transfected cells; host or cells: Jurkat
T1 sequence (Q15116 25-288): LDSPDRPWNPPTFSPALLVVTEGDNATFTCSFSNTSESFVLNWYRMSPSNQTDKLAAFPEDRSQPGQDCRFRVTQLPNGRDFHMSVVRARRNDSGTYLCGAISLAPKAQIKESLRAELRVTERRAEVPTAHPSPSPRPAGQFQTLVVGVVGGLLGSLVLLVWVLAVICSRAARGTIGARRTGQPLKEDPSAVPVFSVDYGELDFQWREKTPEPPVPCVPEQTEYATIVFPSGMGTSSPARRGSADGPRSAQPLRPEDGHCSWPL
Assay type: cell-based
Outline: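 Compounds were preincubated with Jurkat-hPD-1 cells in DMEM plus 10% fetal calf serum for 2 h at 37° C. Phycoerythrin-labeled PD-L1-Ig (20 nM final) was then added for 1 hour. Cells were fixed in 4% paraformaldehyde with Hoechst 33342, and bound fluorescence was quantified by high-content imaging.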

| Structure (SMILES) | IC50 [nM] |
| --- | --- |
| CC[C@H](C)[C@@H]1NC(=O)[C@H](Cc2ccc(-c3ccccc3)cc2)NC(=O)[C@H](C(C)C)NC(=O)[C@H](Cc2cccc(Cl)c2)NC(=O)[C@H](CC(=O)O)NC(=O)[C@H](Cc2ccc(OCC(=O)O)cc2)NC(=O)[C@H](Cc2ccc(OCC(=O)O)cc2)NC(=O)CSC[C@@H](C(=O)N[C@@H](C)C(N)=O)NC(=O)[C@H]([C@@H](C)O)NC(=O)[C@H](C(C)C)NC(=O)[C@H](CC2CCCCC2)NC(=O)[C@H](CCN)NC(=O)[C@@H](CC(C)C)NC(=O)[C@H](CCCN)NC1=O [Compound 1568] | 24.5 |

Same assay, conditions: Jurkat-PD-1 cells, PE-labeled PD-L1-Ig 20 nM final; read-out: Jurkat HPD1_PDL1 IC50

| IC50 [nM] | Structure (SMILES) |
| --- | --- |
| 14.1 | CC(C)C[C@@H]1NC(=O)C(Cc2c[nH]c3ccccc23)NC(=O)[C@H](CC(=O)O)NC(=O)[C@H](Cc2ccc(O)cc2)NC(=O)[C@H](Cc2ccccc2)NC(=O)CSC[C@@H](C(=O)N[C@@H](C)C(N)=O)NC(=O)[C@H](CO)NC(=O)[C@H](C(C)C)NC(=O)[C@H](CC(C)C)NC(=O)[C@H](CC(N)=O)NC(=O)[C@@H](CC(C)C)NC(=O)[C@H](CCN)NC(=O)[C@H](C(C)C)NC(=O)[C@H](Cc2ccc(-c3ccccc3)cc2)NC1=O (stereo partly drawn) [Compound 1214] ({CH2CO}-FYD[ξW]L[Bip]V[Dab][dL]NLVSCA-NH2; thioether N-14) |
| 71.6 | Cc1ccc(C[C@@H]2NC(=O)[C@H](CC(=O)O)NC(=O)[C@H](Cc3ccc(OCC(=O)O)cc3)NC(=O)[C@H](CN)NC(=O)CSC[C@@H](C(=O)N[C@@H](C)C(N)=O)NC(=O)[C@H]([C@@H](C)O)NC(=O)[C@H](C(C)C)NC(=O)[C@H](CC3CCCCC3)NC(=O)[C@H](CCN)NC(=O)[C@@H](CC(C)C)NC(=O)[C@H](CCCN)NC(=O)[C@H](CCC(=O)O)NC(=O)[C@H](Cc3ccc(-c4ccccc4)cc3)NC(=O)[C@H](C(C)C)NC2=O)cc1 [Compound 2139] |
| 43.7 | CCC(C)[C@@H]1NC(=O)[C@H](Cc2ccc(-c3ccccc3)cc2)NC(=O)[C@H](C(C)C)NC(=O)[C@H](Cc2cccc(C)c2)NC(=O)[C@H](CC(=O)O)NC(=O)[C@H](Cc2ccc(OCC(=O)O)cc2)NC(=O)[C@H](CN)NC(=O)CSC[C@@H](C(=O)N[C@@H](C)C(N)=O)NC(=O)[C@H](CO)NC(=O)[C@H](C(C)C)NC(=O)[C@H](CC2CCCCC2)NC(=O)[C@H](CCN)NC(=O)[C@@H](CC(C)C)NC(=O)[C@H](CCCN)NC1=O (stereo partly drawn) [Compound 2533] |
| 23.7 | COc1cccc(C[C@@H]2NC(=O)[C@H](CC(=O)O)NC(=O)[C@H](Cc3ccncc3)NC(=O)[C@H](Cc3ccc(OCC(=O)O)cc3)NC(=O)CSC[C@@H](C(=O)N[C@@H](C)C(N)=O)NC(=O)[C@H]([C@@H](C)O)NC(=O)[C@H](C(C)C)NC(=O)[C@H](CC3CCCCC3)NC(=O)[C@H](CCN)NC(=O)[C@@H](CC(C)C)NC(=O)[C@H](CCCN)NC(=O)[C@H](CCC(=O)O)NC(=O)[C@H](Cc3ccc(-c4ccccc4)cc3)NC(=O)[C@H](C(C)C)NC2=O)c1 [Compound 1505] ({CH2CO}-Y(Carboxymethyl)[4Pal]D[Phe(3-OMe)]V[Bip]E[Orn][dL][Dab][Cha]VTCA-NH2; thioether N-14) |
| 47 | CC(C)C[C@@H]1NC(=O)C(Cc2c[nH]c3ccccc23)NC(=O)[C@H](CC(=O)O)NC(=O)[C@H](Cc2ccc(O)cc2)NC(=O)[C@H](Cc2ccccc2)NC(=O)CSC[C@@H](C(=O)NCC(N)=O)NC(=O)[C@H]([C@@H](C)O)NC(=O)[C@H](C(C)C)NC(=O)[C@H](CC(C)C)NC(=O)[C@H](CC(N)=O)NC(=O)[C@@H](CC(C)C)NC(=O)[C@H](CCN)NC(=O)[C@H](C(C)C)NC(=O)[C@H](Cc2ccc(-c3ccccc3)cc2)NC1=O (stereo partly drawn) [Compound 1215] ({CH2CO}-FYD[ξW]L[Bip]V[Dab][dL]NLVTCG-NH2; thioether N-14) |
| 12.4 | CC(C)C[C@H]1NC(=O)[C@H](CCCN)NC(=O)[C@H](C(C)C)NC(=O)[C@H](Cc2ccc(-c3ccccc3)cc2)NC(=O)[C@H](C(C)C)NC(=O)[C@H](Cc2c[nH]c3ccccc23)NC(=O)[C@H](CC(=O)O)NC(=O)[C@H](Cc2ccc(OCC(=O)O)cc2)NC(=O)[C@H](Cc2ccc(OCC(=O)O)cc2)NC(=O)CSC[C@@H](C(=O)N[C@@H](C)C(N)=O)NC(=O)[C@H]([C@@H](C)O)NC(=O)[C@H](C(C)C)NC(=O)[C@H](CC2CCCCC2)NC(=O)[C@H](CCN)NC1=O [Compound 1690] |
| 14.9 | C#CC[C@H](NC(=O)[C@H](CCN)NC(=O)[C@@H]1CSCC(=O)N[C@@H](CN)C(=O)N[C@@H](Cc2ccc(OCC(=O)O)cc2)C(=O)N[C@@H](CC(=O)O)C(=O)N[C@@H](Cc2cccc(C)c2)C(=O)N[C@@H](C(C)C)C(=O)N[C@@H](Cc2ccc(-c3ccccc3)cc2)C(=O)NC(CCCNC(N)=O)C(=O)N[C@@H](CCCN)C(=O)N[C@H](CC(C)C)C(=O)N[C@@H](CCN)C(=O)N[C@@H](CC2CCCCC2)C(=O)N[C@@H](C(C)C)C(=O)N[C@@H]([C@@H](C)O)C(=O)N1)C(=O)O (stereo partly drawn) [Compound 2258] ({CH2CO}-[Dap]Y(Carboxymethyl)D[Phe(3-Me)]V[Bip][ξCit][Orn][dL][Dab][Cha]VTC[Dab][Pra]-OH; thioether N-14) |
| 24.3 | CC(C)C[C@@H]1NC(=O)[C@H](CCN)NC(=O)[C@@H](CC(C)C)NC(=O)[C@H](CCCN)NC(=O)[C@H](CCCNC(N)=O)NC(=O)[C@H](Cc2ccc(-c3ccccc3)cc2)NC(=O)[C@H](C(C)C)NC(=O)[C@H](Cc2c[nH]c3ccccc23)NC(=O)[C@H](CC(=O)O)NC(=O)[C@H](Cc2ccc(OCC(=O)O)cc2)NC(=O)[C@H](CN)NC(=O)CSC[C@@H](C(=O)N[C@@H](C)C(N)=O)NC(=O)[C@H]([C@@H](C)O)NC(=O)[C@H](C(C)C)NC1=O [Compound 1040] ({CH2CO}-[Dap]Y(Carboxymethyl)DWV[Bip][Cit][Orn][dL][Dab]LVTCA-NH2; thioether N-14) |
| 13.5 | Cc1cccc(C[C@@H]2NC(=O)[C@H](CC(=O)O)NC(=O)[C@H](Cc3ccc(OCC(=O)O)cc3)NC(=O)[C@H](CN)NC(=O)CSC[C@@H](C(=O)N[C@@H](C)C(=O)N[C@@H](CCC(=O)O)C(N)=O)NC(=O)[C@H]([C@@H](C)O)NC(=O)[C@H](C(C)C)NC(=O)[C@H](CC3CCCCC3)NC(=O)[C@H](CCN)NC(=O)[C@@H](CC(C)C)NC(=O)[C@H](CCCN)NC(=O)[C@H](CCCNC(N)=O)NC(=O)[C@H](Cc3ccc(-c4ccccc4)cc3)NC(=O)[C@H](C(C)C)NC2=O)c1 [Compound 1296] ({CH2CO}-[Dap]Y(Carboxymethyl)D[Phe(3-Me)]V[Bip][Cit][Orn][dL][Dab][Cha]VTCAE-NH2; thioether N-14) |
| 16.2 | CCC(C)[C@@H]1NC(=O)[C@H](Cc2ccc(-c3ccccc3)cc2)NC(=O)[C@H](C(C)C)NC(=O)[C@H](Cc2cccc(C)c2F)NC(=O)[C@H](CC(=O)O)NC(=O)[C@H](Cc2ccc(OCC(=O)O)cc2)NC(=O)[C@H](CN)NC(=O)CSC[C@@H](C(=O)N[C@@H](C)C(N)=O)NC(=O)[C@H]([C@@H](C)O)NC(=O)[C@H](C(C)C)NC(=O)[C@H](CC2CCCCC2)NC(=O)[C@H](CCN)NC(=O)[C@@H](CC(C)C)NC(=O)[C@H](CCCN)NC1=O (stereo partly drawn) [Compound 2243] |
| 5.9 | Cc1cccc(C[C@@H]2NC(=O)[C@H](CC(=O)O)NC(=O)[C@H](Cc3ccc(OCC(=O)O)cc3)NC(=O)[C@H](CN)NC(=O)CSC[C@@H](C(=O)N[C@@H](CCC(=O)O)C(=O)O)NC(=O)[C@H]([C@@H](C)O)NC(=O)[C@H](C(C)C)NC(=O)[C@H](CC3CCCCC3)NC(=O)[C@H](CCN)NC(=O)[C@@H](CC(C)C)NC(=O)[C@H](CCCN)NC(=O)[C@H](CCCNC(N)=O)NC(=O)[C@H](Cc3ccc(-c4ccccc4)cc3)NC(=O)[C@H](C(C)C)NC2=O)c1 [Compound 1301] ({CH2CO}-[Dap]Y(Carboxymethyl)D[Phe(3-Me)]V[Bip][Cit][Orn][dL][Dab][Cha]VTCE-OH; thioether N-14) |
